We go through one substance from patent publication US5475087A, “Antagonists of human granulocyte-macrophage colony stimulating factor derived from the carboxyl terminus” (Schering Corporation, priority 1994, dated 1995).

Assay [1] relates to GM-CSF stimulation of KG-1 cell proliferation. As to the kind of experiment: KG-1 cell proliferation assay (MTT). The format is cell-based, human. As for the experimental part:
The assay for GM-CSF is based on stimulation of proliferation of suitable cells such as KG-1 cells, a cell line established from the bone marrow of a patient with acute myelogenous leukemia. AML-193 cells can also be used in this assay. AML-193 are cells as described in B. Lange et al., Blood, 70: 192-199 (1987). Cells are incubated in microtiter plate wells with dilutions of GM-CSF for about 6 days and then incubated for about an additional 4 hours with the tetrazolium salt MTT (3-(4,5-dimethylthiozol-2-yl)-2,5-diphenyltetrazolium bromide). MTT is converted by mitochondrial dehydrogenase enzymes to a colored reaction product, formazan (Mosmann, I. (1983) J. Immunological Methods 65, 55-63). The formazan is extracted with acidified isopropanol and measured spectrophotometrically. The observed optical density is directly proportional to the log2 cell concentration. The results are expressed as ΔO.D., where ΔO.D. is the optical density of the sample minus the optical density of a baseline control lacking GM-CSF. […] The formazan is extracted with acidified isopropanol and measured spectrophotometrically. […] The results are expressed as ΔO.D., where ΔO.D. is the optical density of the sample minus the optical density of a baseline control lacking GM-CSF. […]

For assay [2], the system named is GM-CSF receptors on KG-1 cells. Kind of assay: GM-CSF receptor binding assay on KG-1 cells. Set-up: species or system human. The note with it: 2700 sites/cell, read-out: Kd, low affinity site. As for the experimental part:
GM-CSF is radioiodinated by the method of Bolton and Hunter (Bolton, A. E. & Hunter, W. M. (1973) Biochem. J. 133, 529-539) and purified by gel filtration on a Sephadex G-25 column (PD-10, Pharmacia). The resulting ^125 I-GM-CSF has a specific radioactivity of about 1-3×10^6μCi/μMole and a stoichiometry of 0.4-1.2 moles ^125 I per mole of GM-CSF.
The samples are incubated at about 22° C. or 4° C. for 1 hour or 2 hours, respectively. Centrifugation for 21/2 minutes at 600×g yields a cell pellet which is washed twice with IMDM-10% FCS.
To measure the displacement of ^125 I-GM-CSF from receptors by polyclonal antibodies, antisera or pre-immune sera are included in the binding assays. Antibodies that recognize GM-CSF are incubated for about 10 minutes with ^125 I-GM-CSF prior to initiating binding by the addition of KG-1 cells, AML-193 cells or placental membranes. The sheep polyclonal antibody 1418, which recognized the GM-CSF receptor, is pre-incubated for about 10 minutes with KG-1 cells, AML-193 cells or placental membranes. Binding is initiated by ^125 I-GM-CSF addition.
GM-CSF (an article of commerce available, e.g., from Genzyme Corporation, Boston, Mass.) was radioiodinated by the method of Bolton and Hunter [Bolton, A. E. & Hunter, W. M., Biochem., J., 133: 529-539 (1973)] and purified by gel filtration on a Sephadex G-25 column (PD-10, Pharmacia). […]

The target of assay [3] is GM-CSF receptors on placental membranes. As to the kind of experiment: GM-CSF receptor binding assay on placental membranes. Here is the method:
Placental membranes are prepared by homogenization, centrifugation to remove the 100×g fraction, and thorough washing of the 27,300×g fraction. Protease inhibitors may be present in the homogenization and wash buffers. […] Following incubation for about 1 hour at about 22° C., samples are centrifuged for about 21/2 minutes at 800×g and the placental membrane pellet washed twice with IMDM-10% FCS. Cell pellets are counted on a gamma counter. Saturating concentrations of unlabeled GM-CSF are added to control assays to measure non-specific binding. To measure the displacement of ^125 I-GM-CSF from receptors by polyclonal antibodies, antisera or pre-immune sera are included in the binding assays. Antibodies that recognize GM-CSF are incubated for about 10 minutes with ^125 I-GM-CSF prior to initiating binding by the addition of KG-1 cells, AML-193 cells or placental membranes. The sheep polyclonal antibody 1418, which recognized the GM-CSF receptor, is pre-incubated for about 10 minutes with KG-1 cells, AML-193 cells or placental membranes. Binding is initiated by ^125 I-GM-CSF addition. Placental membranes were prepared by homogenization, centrifugation to remove the 100×g fraction, and thorough washing of the 27,300×g fraction. Protease inhibitors were present in the homogenization and wash buffers. […] Cell pellets were counted on a gamma counter. […]

What is called Kd is the constant that tells how readily two partners part at equilibrium. Consider “^125 I-GM-CSF: GM-CSF radioiodinated by the method of Bolton and Hunter, purified by gel filtration”, for which the “biological activity compared with unlabeled GM-CSF” value in assay [1] is recorded as “same biological activity as unlabeled GM-CSF”. Moreover, the Kd came out at 0.73 nM in assay [2] and 0.86 nM in assay [3].
